Experimental data: patent US6774220B1, “Compounds having lectinic properties and their biological applications” (Association pour le Développement de la Biothérapie …, priority 1995, dated 2004)

Experiments:
[1] = biological target: oligopeptide 81-95 (SEQ ID NO: 6) (Homo sapiens, UniProt P08729); assay: Antibody titre against oligopeptide antigen 81-95; format: binding
Source text: (§1) By operating according to standard techniques, the formation of antibodies against the SEQ ID NO: 5 peptides or SEQ ID NO:6 is induced. The specific characters of these antibodies is set out in Table 7.

[2] = test system: Ost. Sarc. ESS (SCLs excreted by the osteogenic sarcoma ESS); assay: Antibody titre against SCL excreted by osteogenic sarcoma ESS; format: binding
Source text: as §1

[3] = biological target: oligopeptide 41-55 (SEQ ID NO: 5) (Homo sapiens, UniProt P08729); assay: Antibody titre against oligopeptide antigen 41-55; format: binding
Source text: as §1

[4] = test system: T (lympho) cells; assay: Stimulation over 24 hours of the synthesis of DNA in T (lympho) cells; format: cell-based
Protocol: XI Stimulation over 24 hours of the synthesis of DNA in T (lympho) cells

[5] = test system: encephalomyocarditis virus (EMC); assay: Protection of IFN against the encephalomyocarditis virus in Swiss mice, with SCL inhibiting sugars; format: in vivo; settings: EMC virus i.p.
Protocol: The model used is the encephalomyocarditis virus (EMC) which kills mice in practically all cases after rather varying but relatively short incubation periods.
Male mice (average weight: […], aged 8 to 10 weeks) were injected i.p. with sodium galacturonate, glucosamine and N-acetylneuraminic acid (5 to 10% solutions containing 100 mM sugar). 24 hours afterwards, one hundred lethal doses (50%) of EMC virus are injected by the same route. After one hour, murine interferon is injected (in a dose of 20,000 units in 0.5 ml). Table 3 gives the number of animals surviving out of the total tested, the percentage and statistical significance.

[6] = test system: murine sarcolectin; assay: Action of simple sugars on the agglutination of cells by sarcolectin; format: cell-based, Swiss mice; settings: in the presence of 2 agglutinating units of murine sarcolectin; H9 cells
Protocol: A wide variety of cells originating either from rodents or from primates was tested. Agglutination is obtained by suspending the cells in an MEM medium in the absence of serum. The test may be carried out in two ways, either in the presence of a sarcolectin dilution range in a base 2 geometric progression, by identifying the concentration at which 50% of the cells are agglutinated, or by identifying the affinity of the various sugars for the cell receptors.
In the example shown, murine sarcolectin originating from the ascitic fluid of Swiss mice grafted with Crocker TG180 sarcoma contains 32 units agglutinating the H9 cells which originate from a T lymphoma, fixed by 10% formaldehyde.
The table below illustrates the affinity of the receptors for the various sugars in the presence of 2 agglutinating units.

[7] = test system: TG-180 tumour cells; assay: Antitumour action on grafted TG-180 ascitic tumour
Protocol: In order to test the antitumour capacity of SCL inhibiting sugars, TG-180 tumour cells originating from a tumour resistant to chemical metabolic inhibitors was grafted. In a concentration of 3×10^6 cells injected i.p. into 20 gr Swiss mice, an ascitic tumour is obtained which is detectable in 10 days and kills practically 100% of the animals in 21-25 days.
In parallel series, the various groups of animals were treated 3 days after inoculation, either with a specific sugar (glucosamine, lactose, galacturonate, N.A.N.A., neuramine-lactose) in a 5 to 10% solution, the sugar concentration being 100 mM, or with the same treatment in association with an injection of immuno-stimulant (extract of corynebacterium parvum, Merieux, France), in a dose of 200 g/mouse, or interferon, or both.
4 groups of mice per experiment were used.
They are assessed by the percentage of tumours that appeared on the 10th day, the mean survival time of the animals (MST) in. days, and the final survival (as a percentage).

[8] = IL2 (100 u) +SCL + inhibitor (NANA 0.75 mmol.; oligo 41-55 3 μγ/ml)
[9] = single agent (+MEM, or IFN in reference group)

With 41-55 (GLGASRPRVAVRSAY) the “antibody titre, oligopeptide 81-95 as antigen” value [1] was <200, the “antibody titre, Ost. Sarc. ESS as antigen” value [2] was >12 800 and the “antibody titre, oligopeptide 41-55 as antigen” value [3] was >12 600.
81-95 (DPFSQRVRQEESEQI) was tested, and the “antibody titre, oligopeptide 81-95 as antigen” value [1] was >12 800 and the “antibody titre, oligopeptide 41-55 as antigen” value [3] was <200.
With `CC(=O)N[C@H]1[C@H]([C@H](O)[C@H](O)CO)OC(O)(C(=O)O)C[C@@H]1O` (stereo partly drawn) [N.A.N.A, N-acetylneuraminic acid] the “effect on the stimulation of DNA synthesis by SCL (in words)” value ([4]; 24 hours) was “inhibited”, the “synthesis of DNA, EXP. N° 1” value [4, 8] was 4,657 ± 214.78 and the “synthesis of DNA, EXP. N° 2” value [4, 8] was 27,133 ± 1771. The “number of animals surviving out of the total number tested” value [5, 9] was 0/15, the percentage surviving [5, 9] was 0% and the “number of animals surviving out of the total number tested” value ([5]; sugar +IFN (20,000 units)) was 8/15c. For the same molecule, the percentage surviving ([5]; sugar +IFN (20,000 units)) was 53%, the affinity [6] was 0.0075 mM and the “Final survival (%)” value ([7]; +CP) was “(53) %”. The “Final survival, Number” value ([7]; +CP) was 8, the “MST (mean survival time)” value ([7]; +CP) was 69 ± 12 days and the “Tumours on 10th day (%)” value ([7]; +CP) was 40%. For the same molecule, the “Tumours on 10th day, number” value ([7]; +CP) was 6, the “Final survival (%)” value ([7]; +CP +IFN) was “(36) %” and the “Final survival, Number” value ([7]; +CP +IFN) was 11. For the same molecule, the “MST (mean survival time)” value ([7]; +CP +IFN) was 70 ± 12 days, the “Tumours on 10th day (%)” value ([7]; +CP +IFN) was 43% and the “Tumours on 10th day, number” value ([7]; +CP +IFN) was 13. For the same molecule, the “Final survival (%)” value ([7]; +IFN) was “(13) %”, the “Final survival, Number” value ([7]; +IFN) was 4 and the “MST (mean survival time)” value ([7]; +IFN) was 39 ± 12 days. The “Tumours on 10th day (%)” value ([7]; +IFN) was 16%, the “Tumours on 10th day, number” value ([7]; +IFN) was 5 and the “Final survival (%)” value ([7]; agent alone) was “(0) %”. For the same molecule, the “Final survival, Number” value ([7]; agent alone) was 0, the “MST (mean survival time)” value ([7]; agent alone) was 24 ± 6 days and the “Tumours on 10th day (%)” value ([7]; agent alone) was 34%. For the same molecule, the “Tumours on 10th day, number” value ([7]; agent alone) was 9.
